{"source": "patent US20260215420A1", "about": "(Solasta Bio Limited, priority 2022, published 2026)", "key": {"Myzus persicae": {"test_system": "Myzus persicae", "assay": "Leaf dip assay for aphids", "format": "in vivo", "details": "unformulated peptide, compared to vehicle and Spirotetramat, up to 120 hours", "experimental": "Leaf Dip Assay—Aphids or Plutella xylostella Based on IRAC susceptibility test method 019 (https://irac-online.org/methods/aphids-adultnymphs/). Fill a small 4 cm wide 3 cm high dish with a 1% agar solution (ensuring 1 cm gap between the agar and the lid) and leave to set. Dip a 2.5 cm leaf disc into 3 ml of treatment solution allowing the treatment to coat the leaf. Leave the disc to dry for 1 hour and place onto the set agar. Place insects (aphids or Plutella xylostella) onto each of the leaf discs. Each unit is sealed with a close-fitting, ventilated lid. Place the agar dishes in a small plastic tray lined with moist tissue paper and ensure the water trays in the bottom of the incubator are filled with clean water and place within the incubator. An assessment of mortality is made at 72, 96 and 120 hours. Leaf dip assays for aphids were performed with SB-P-65, and compared to a negative control vehicle and a current commercial insecticide Spirotetramat. The activity of SB-P-65 is shown in FIGS. 20 and 21; SB-P-65 has good activity whilst being eco-friendly and targeted to specific pests unlike broad spectrum chemical insecticides such as Spirotetramat. Leaf dip assays for aphids were performed with SB-P-66, and compared to a negative control vehicle and a current commercial insecticide Spirotetramat. […]"}, "[1]": {"assay": "gut and MT tissue and contents of final-stage P. xylostella larvae in Schneider's medium", "details": "Plutella xylostella, 25° C., up to 24 h"}, "Plutella xylostella": {"test_system": "Plutella xylostella", "assay": "Leaf dip assay for Plutella xylostella", "format": "in vivo", "details": "unformulated peptide, compared to vehicle and Chlorantraniliprole", "experimental": "Leaf Dip Assay—Aphids or Plutella xylostella Based on IRAC susceptibility test method 019 (https://irac-online.org/methods/aphids-adultnymphs/). Fill a small 4 cm wide 3 cm high dish with a 1% agar solution (ensuring 1 cm gap between the agar and the lid) and leave to set. Dip a 2.5 cm leaf disc into 3 ml of treatment solution allowing the treatment to coat the leaf. Leave the disc to dry for 1 hour and place onto the set agar. Place insects (aphids or Plutella xylostella) onto each of the leaf discs. Each unit is sealed with a close-fitting, ventilated lid. Place the agar dishes in a small plastic tray lined with moist tissue paper and ensure the water trays in the bottom of the incubator are filled with clean water and place within the incubator. An assessment of mortality is made at 72, 96 and 120 hours. Leaf dip assays for Plutella xylostella were performed with SB-P-70, and compared to a negative control vehicle and a current commercial insecticide Chlorantraniliprole. The activity of SB-P-70 is shown in FIG. 6; SB-P-70 has good activity whilst being eco-friendly and targeted to specific pests unlike broad spectrum chemical insecticides such as Chlorantraniliprole"}, "[2]": {"format": "in vitro ADME, Plutella xylostella", "experimental": "Plutella xylostella Tissue Biostability Study of SB-P-70 and SB-P-103\nSB-P-70 and SB-P-103 were incubated with the gut and MT tissue and contents of final-stage P. xylostella larvae in Schneider's medium at 25° C. Control samples were prepared with peptides in Schneider's medium with no tissue and tissue in Schneider's medium with no peptides. The condition of the peptides after incubation with the tissue was assessed by LC-MS at: 4 h; 8 h; 16 h; and 24 h time points (FIGS. 13 and 14).\nIn contrast, SB-P-103 remained 44% intact after 24 h tissue incubation."}, "Spodoptera frugiperda": {"test_system": "Spodoptera frugiperda", "assay": "Lepidoptera mortality assay (artificial diet)", "format": "in vivo", "details": "1×10^−4 M in artificial diet, L1 larvae, 168 hrs, compared to vehicle and DDT", "text": "Lepidoptera Mortality Assay Against Spodoptera frugiperda Frontier Lepidoptera Artificial diet was made up by preparing agar at 1% and then mixing it with artificial diet powder. Peptide solution was aliquoted in 10 cells and diet poured straight onto it. The final concentration of the peptide was 1×10^−4 M, and each peptide was aliquoted in 10 cells. Once the diet solidified and cooled down, one L1 larvae was infested in each cell. The trays were sealed with heat and let larva were allowed to develop for 168 hrs. Finally, pupation and mortality were scored for. Lepidoptera mortality assays were performed with SB-P-70, and compared to a negative control vehicle and the insecticide dichlorodiphenyltrichloroethane (DDT). The activity of SB-P-70 is shown in FIG. 32; SB-P-70 has good activity whilst being eco-friendly and targeted to specific pests unlike broad spectrum chemical insecticides such as DDT."}}, "data": [{"molecule": "CC(C)[C@H](NC(=O)C(NC(=O)[C@H](CCCCN)NC(=O)[C@H](CCC(N)=O)NC(=O)[C@@H](N)CCCNC(=N)N)[C@@H](C)O)C(=O)N[C@@H](Cc1ccccc1)C(=O)N[C@@H](CO)C(=O)N[C@@H](CO)C(=O)N[C@@H](Cc1c[nH]c2ccccc12)C(=O)NCC(N)=O", "note": "(stereo partly shown) [SB-P-65, Hy-RQKTVFSSWG-[NH2]]", "values": [{"measurement": "activity against Myzus persicae (mortality)", "setting": "Myzus persicae", "result": "good activity"}]}, {"molecule": "H-KVKFSAWG-NH2", "values": [{"measurement": "cleaved bond", "setting": "[1]", "result": "Ser5-Ala6, major"}]}, {"molecule": "H-KVKFSAWG-NH2 [SB-P-70, Hy-KVKFSAWG-[NH2]]", "values": [{"measurement": "activity against Plutella xylostella (mortality)", "setting": "Plutella xylostella", "result": "good activity"}, {"measurement": "condition of the peptide after incubation with the tissue", "setting": "[2]", "result": "completely degraded"}, {"measurement": "site of proteolytic cleavage", "setting": "[2]", "result": "between Ser5 and Ala6"}, {"measurement": "activity against Spodoptera frugiperda (pupation and mortality)", "setting": "Spodoptera frugiperda", "result": "good activity"}]}, {"molecule": "H-PAFSSWG-NH2 [SB-P-66, Hy-PAFSSWG-[NH2]]", "values": [{"measurement": "activity against Myzus persicae (mortality)", "setting": "Myzus persicae", "result": "good activity"}]}]}
